Measured values from patent publication US11197861B2, “Methods of screening BRaf inhibitors for treating cutaneous reactions” (Lutris Pharma Ltd., priority 2016, dated 2021).

tested on: MAPK (ERK); test: Activation of MAPK (ERK) in human normal keratinocytes (HEKa), Western blot of phospho-ERK / total ERK; assay type: cell-based; settings: human primary keratinocytes (HEKa); 1 μM; 2 hours treatment; FIGS. 4A-C
Protocol: Human normal Keratinocyte cells HEKa were seeded in 10 cm dishes (300,000 cells/dish) and incubated overnight at 37° C., 5% CO2. Next morning, the cells were starved for 2 hours and then treated with the various inhibitors (or control treatments) for 2 hours. Post incubation the cells were lyzed with RIPA Buffer and the protein extracts were analyzed by Western-Blot for detection of phospho ERK and total ERK2, by use of suitable antibodies. Untreated and 0.1% DMSO treated cells were used as negative control. Growth factors mix (HKGS) was used as positive control (Gibco CAT #: S0015).
Western Blot: 7.5 μg of total extract was loaded on 10% or 12% acrylamide gels. Following transfer, the membranes were blocked with TBST/5% skim milk and then incubated with Mouse anti phospho ERK (1:1000 in TBST 5% BSA, ON at 4° C.) and goat anti Mouse HRP (1:10,000 in TBST 5% BSA, 1 hour RT). The membranes were exposed using SuperSignal West Pico Chemiluminescent Substrate. The HRP was then inactivated by incubating the membranes for 1 hour with 0.5% Sodium azide. Following washes and ECL exposure in order to ensure absence of signal, the membranes were reblocked for 15 min with TBST/5% skim milk and then incubated with Rabbit anti total ERK2 (1:500 in TBST 5% BSA, ON at 4° C.), goat anti Rabbit HRP (1:5,000 in TBST 5% BSA, 1 hour RT) and finally exposed using the SuperSignal West Pico Chemiluminescent Substrate. The resulting images (films) were scanned and the signal were quantified using ImageJ software. BRaf inhibitors used in the experiments included, C-1, C-15, C-19 C-A or vemurafenib, at concentrations of 0.3 μM; 1 μM or 3 μM. ZM (ZM336372) a c-Raf inhibitor, which serves in the present experiments as a Braf activator and was used as a control.

| SMILES | activation of ERK (increase in relative amount of Phosphorylated ERK) |
| --- | --- |
| CNc1ncc2cc(-c3c(C)ccc4c(Nc5cccc(OC(F)(F)F)c5)nc(C)nc34)ccc2n1 [C-A] | activation of ERK |
| Cc1ccc2c(Nc3ccc(Cl)cc3)nccc2c1Nc1ncccc1-c1ncnc2[nH]cnc12 [C-1] | activation of ERK |
| C#Cc1cccc(Nc2nccc3c(Nc4ncccc4-c4cc(NC)ncn4)c(C)ccc23)c1 [C-15] | activation of ERK |
| CNc1ncc2cc(-c3c(C)ccc4c(Nc5cc(C(C)(C)C)nn5C)nccc34)ccc2n1 [C-19] | activation of ERK |
| Cc1ccc(NC(=O)c2cccc(N(C)C)c2)cc1NC(=O)c1ccc(O)cc1 [ZM 336372] | activation of ERK |

same assay, conditions: human primary keratinocytes (HEKa); increasing amounts 0.3 μM, 1 μM or 3 μM; 2 hours treatment; FIGS. 1-3

| SMILES | activation of ERK (increase in relative amount of Phosphorylated ERK) |
| --- | --- |
| CNc1ncc2cc(-c3c(C)ccc4c(Nc5cccc(OC(F)(F)F)c5)nc(C)nc34)ccc2n1 [C-A] | activation of ERK |
| Cc1ccc2c(Nc3ccc(Cl)cc3)nccc2c1Nc1ncccc1-c1ncnc2[nH]cnc12 [C-1] | activation of ERK |
| C#Cc1cccc(Nc2nccc3c(Nc4ncccc4-c4cc(NC)ncn4)c(C)ccc23)c1 [C-15] | activation of ERK |
| CNc1ncc2cc(-c3c(C)ccc4c(Nc5cc(C(C)(C)C)nn5C)nccc34)ccc2n1 [C-19] | activation of ERK |
| Cc1ccc(NC(=O)c2cccc(N(C)C)c2)cc1NC(=O)c1ccc(O)cc1 [ZM 336372] | activation of ERK |
